Measurements reported in patent US9359378B2, “Substituted oxazolo[3,4-a]pyrazines as pharmaceutcals” (BIOLAB SANUS FARMACÊUTICA LTDA., priority 2014, dated 2016).

What was measured:
PDE4A1A = target: T1, PDE4A1A (Homo sapiens, UniProt P27815); test: PDE4A1A enzyme inhibition (HTRF, cAMP substrate); type: biochemical; conditions: human recombinant enzyme (Sf9); FIGS. 14 and 15; test concentration not given
T1 construct: host or cells: Sf9
Source text: (§1) The effects of the BL-230 and BL-236 compounds on the activity of the human enzymes PDE2A1, PDE3A, PDE4A1A, PDE4B1, PDE7A, PDE8A1, and PDE10A2 and PDE11A4 were quantified by measuring the production of adenosine 5′-monophosphate (5′AMP) from cyclic adenosine monophosphate (cAMP), with human recombinant enzyme expressed in Sf9 cells and the detection method was by using HTRF®.
(§2) The test compound, the reference compound or water (control) were mixed with the enzyme (the enzymes and their amounts used are described in Table 1) in a buffer containing 44.4 mM Tris-HCl, 5.28 mM MgCl2, 2.64 mM DTT and 0.044% Tween® 20 (pH 7.8). Then, the reaction was initiated by the addition of 40 nM of cAMP substrate and the mixture was incubated for 30 minutes at room temperature. For basal control measurements, the enzyme was omitted from the reaction mixture. The fluorescence acceptor (Dye2 labeled cAMP) and fluorescence donor (anti-cAMP antibody labeled with europium cryptate) were added in the presence of 1 mM IBMX. After 60 minutes, the fluorescence corresponding to the amount of transfer residual cAMP was measured at λex=337 nm, λem=620 nm and λem=665 nm using a microplate reader (RubyStar, BMG). The enzyme activity was determined by the signal division measured at 665 nm, by the measured signal at 620 nm (right). The results were expressed as a inhibition percentage of the control enzyme activity. […]

[1] = system: rabbit's corpus cavernosum; test: Relaxing effect in isolated rabbit's corpus cavernosum strips pre-contracted with phenylephrine (isometric tension); set-up: species or system New Zealand White rabbits; conditions: for tissue relaxation of phenylephrine-contracted corpus cavernosum: 1 μM compound, contraction induced by 1 μM phenylephrine (PE), FIGS. 8-10; for percentage of relaxation in rabbit's corpus cavernosum: FIGS. 12 and 13
Description: For this study, New Zealand White rabbits (2 to 3.5 kg) were used to obtain penile tissue which was excised and transferred to a chilled Krebs solution. For this study, we used cavernosum strips (CC) of the penile tissue of New Zealand White rabbits. The strips were mounted in 10 ml tissue incubation chambers containing Krebs solution at 37° C., pH occurring between 7.3 and 7.5; continuously bubbled with a mixture of 95% oxygen (O2) and 5% carbon dioxide (CO2). An initial tension of 10 mN were applied on the tissues, followed by a 60 minute stabilization period. Changes in tension (isometric force) were obtained using isometric transducers (ADInstruments, Australia) and recorded in a data acquisition system PowerLab 4/30 (Chart Software, version 7.3.7, ADInstruments, MA, USA for BL-230 and version 7.0 ADInstruments, MA for the BL-236). […] Cumulative curve responses to the concentration of BL-230 compounds and tadalafil (0.001 to 10 μM) were obtained in the pre-contracted rabbit corpus cavernosum strips with 1 μM PE.

PDE3A = target: T2, PDE3A (Homo sapiens, UniProt Q14432); test: PDE3A enzyme inhibition (HTRF, cAMP substrate); type: biochemical; conditions: human recombinant enzyme (Sf9); FIGS. 14 and 15; test concentration not given
T2 construct: host or cells: Sf9
Source text: as §1, §2

PDE2A1 = target: T3, PDE2A1 (Homo sapiens, UniProt O00408); test: PDE2A1 enzyme inhibition (HTRF, cAMP substrate); type: biochemical; conditions: human recombinant enzyme (Sf9); FIGS. 14 and 15; test concentration not given
T3 construct: host or cells: Sf9
T3 sequence (O00408 1-920 isoform O00408-2): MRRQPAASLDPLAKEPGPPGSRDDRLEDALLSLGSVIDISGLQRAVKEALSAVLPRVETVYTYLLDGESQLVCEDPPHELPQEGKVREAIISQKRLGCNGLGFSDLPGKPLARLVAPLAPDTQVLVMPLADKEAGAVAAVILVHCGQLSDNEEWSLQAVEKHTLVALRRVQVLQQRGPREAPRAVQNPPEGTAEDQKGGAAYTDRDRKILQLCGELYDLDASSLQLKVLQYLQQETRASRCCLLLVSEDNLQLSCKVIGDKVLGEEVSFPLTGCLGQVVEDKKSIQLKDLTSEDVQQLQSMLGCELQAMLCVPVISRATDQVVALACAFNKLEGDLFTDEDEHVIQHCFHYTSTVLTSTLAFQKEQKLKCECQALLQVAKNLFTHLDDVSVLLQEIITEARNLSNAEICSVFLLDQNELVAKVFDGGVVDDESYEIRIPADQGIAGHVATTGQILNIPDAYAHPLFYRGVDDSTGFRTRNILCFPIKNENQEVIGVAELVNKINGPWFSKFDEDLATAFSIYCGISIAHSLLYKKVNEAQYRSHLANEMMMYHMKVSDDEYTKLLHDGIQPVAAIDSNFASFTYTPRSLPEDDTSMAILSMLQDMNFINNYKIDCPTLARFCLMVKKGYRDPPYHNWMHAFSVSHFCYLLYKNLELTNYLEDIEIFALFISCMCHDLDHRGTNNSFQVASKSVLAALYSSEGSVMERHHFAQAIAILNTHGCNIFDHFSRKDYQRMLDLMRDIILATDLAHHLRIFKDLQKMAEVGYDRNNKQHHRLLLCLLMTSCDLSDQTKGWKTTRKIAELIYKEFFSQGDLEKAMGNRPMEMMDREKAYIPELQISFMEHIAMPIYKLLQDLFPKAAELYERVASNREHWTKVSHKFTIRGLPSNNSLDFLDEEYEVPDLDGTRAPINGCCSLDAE
Source text: as §1, §2

PDE8A1 = target: T4, PDE8A1 (Homo sapiens, UniProt O60658); test: PDE8A1 enzyme inhibition (HTRF, cAMP substrate); type: biochemical; conditions: human recombinant enzyme (Sf9); FIGS. 14 and 15; test concentration not given
T4 construct: host or cells: Sf9
T4 sequence (O60658 whole entry): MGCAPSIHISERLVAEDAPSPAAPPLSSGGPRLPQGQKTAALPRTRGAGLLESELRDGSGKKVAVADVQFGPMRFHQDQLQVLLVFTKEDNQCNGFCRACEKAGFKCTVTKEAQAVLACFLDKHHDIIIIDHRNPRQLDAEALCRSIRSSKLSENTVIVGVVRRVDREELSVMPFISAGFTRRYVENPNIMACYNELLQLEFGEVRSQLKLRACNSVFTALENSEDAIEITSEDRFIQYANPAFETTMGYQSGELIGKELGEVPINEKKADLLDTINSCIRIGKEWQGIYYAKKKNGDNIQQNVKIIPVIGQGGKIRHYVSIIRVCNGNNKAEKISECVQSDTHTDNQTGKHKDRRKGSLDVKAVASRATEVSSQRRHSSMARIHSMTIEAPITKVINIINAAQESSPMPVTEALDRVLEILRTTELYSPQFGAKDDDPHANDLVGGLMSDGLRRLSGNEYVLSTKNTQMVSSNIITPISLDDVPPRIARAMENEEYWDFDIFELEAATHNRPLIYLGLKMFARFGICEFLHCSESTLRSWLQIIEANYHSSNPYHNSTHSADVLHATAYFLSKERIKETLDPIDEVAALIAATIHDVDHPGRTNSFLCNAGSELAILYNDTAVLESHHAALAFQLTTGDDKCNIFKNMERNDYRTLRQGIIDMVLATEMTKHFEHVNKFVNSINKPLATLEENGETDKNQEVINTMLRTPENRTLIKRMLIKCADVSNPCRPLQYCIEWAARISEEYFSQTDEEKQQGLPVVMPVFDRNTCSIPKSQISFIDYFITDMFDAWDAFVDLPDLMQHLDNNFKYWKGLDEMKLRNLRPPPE
Source text: as §1, §2

PDE4B1 = target: T5, PDE4B1 (Homo sapiens, UniProt Q07343); test: PDE4B1 enzyme inhibition (HTRF, cAMP substrate); type: biochemical; conditions: human recombinant enzyme (Sf9); FIGS. 14 and 15; test concentration not given
T5 construct: host or cells: Sf9
T5 sequence (Q07343 whole entry): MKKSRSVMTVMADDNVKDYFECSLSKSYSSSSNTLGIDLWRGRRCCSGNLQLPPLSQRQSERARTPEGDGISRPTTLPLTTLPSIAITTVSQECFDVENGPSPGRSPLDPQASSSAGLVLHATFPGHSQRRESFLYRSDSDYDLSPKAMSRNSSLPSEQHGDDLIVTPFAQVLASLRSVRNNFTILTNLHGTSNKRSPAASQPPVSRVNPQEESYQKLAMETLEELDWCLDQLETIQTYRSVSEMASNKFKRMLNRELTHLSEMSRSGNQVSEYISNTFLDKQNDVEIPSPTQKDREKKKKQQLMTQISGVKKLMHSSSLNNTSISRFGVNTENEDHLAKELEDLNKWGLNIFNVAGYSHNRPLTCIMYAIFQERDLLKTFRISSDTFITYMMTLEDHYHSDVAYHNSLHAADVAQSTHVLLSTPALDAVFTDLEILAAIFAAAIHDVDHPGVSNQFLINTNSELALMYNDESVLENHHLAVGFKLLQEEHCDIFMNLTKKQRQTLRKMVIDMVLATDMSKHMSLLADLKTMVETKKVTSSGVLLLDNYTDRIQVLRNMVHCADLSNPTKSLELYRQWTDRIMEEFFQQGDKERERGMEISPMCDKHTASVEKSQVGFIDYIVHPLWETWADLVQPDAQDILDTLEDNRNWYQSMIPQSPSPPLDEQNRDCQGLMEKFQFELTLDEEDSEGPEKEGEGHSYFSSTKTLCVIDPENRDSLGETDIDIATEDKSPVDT
Source text: as §1, §2

PDE11A4 = target: T6, PDE11A4 (Homo sapiens, UniProt Q9HCR9); test: PDE11A4 enzyme inhibition (HTRF, cAMP substrate); type: biochemical; conditions: human recombinant enzyme (Sf9); FIGS. 14 and 15; test concentration not given
T6 construct: host or cells: Sf9
T6 sequence (Q9HCR9 whole entry): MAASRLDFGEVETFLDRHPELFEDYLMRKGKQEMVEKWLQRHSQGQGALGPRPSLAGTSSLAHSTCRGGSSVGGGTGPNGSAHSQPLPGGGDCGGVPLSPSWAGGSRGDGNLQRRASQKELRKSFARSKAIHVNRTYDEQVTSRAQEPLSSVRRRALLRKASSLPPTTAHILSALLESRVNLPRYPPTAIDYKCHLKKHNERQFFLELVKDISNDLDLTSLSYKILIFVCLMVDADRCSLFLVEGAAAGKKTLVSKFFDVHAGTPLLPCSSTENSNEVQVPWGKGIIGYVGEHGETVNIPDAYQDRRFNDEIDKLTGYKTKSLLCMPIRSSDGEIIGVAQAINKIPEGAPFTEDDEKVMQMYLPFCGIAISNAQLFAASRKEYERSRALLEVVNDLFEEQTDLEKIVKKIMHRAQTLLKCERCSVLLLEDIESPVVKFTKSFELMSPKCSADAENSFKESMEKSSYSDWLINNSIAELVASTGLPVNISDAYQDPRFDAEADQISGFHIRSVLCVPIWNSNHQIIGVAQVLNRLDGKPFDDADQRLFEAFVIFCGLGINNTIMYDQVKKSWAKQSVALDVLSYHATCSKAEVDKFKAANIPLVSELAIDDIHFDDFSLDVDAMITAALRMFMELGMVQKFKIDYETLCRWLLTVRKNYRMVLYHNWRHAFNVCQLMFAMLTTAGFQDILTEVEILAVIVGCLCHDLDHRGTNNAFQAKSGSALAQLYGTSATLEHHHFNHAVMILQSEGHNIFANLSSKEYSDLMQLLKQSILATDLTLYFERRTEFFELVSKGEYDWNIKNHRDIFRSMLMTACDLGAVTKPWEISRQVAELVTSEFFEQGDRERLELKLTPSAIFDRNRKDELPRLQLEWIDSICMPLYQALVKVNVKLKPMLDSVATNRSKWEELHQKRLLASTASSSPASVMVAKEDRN
Source text: as §1, §2

[2] = strips pre-contracted with 1 μM PE

T1 sequence (P27815 1-647 isoform P27815-4): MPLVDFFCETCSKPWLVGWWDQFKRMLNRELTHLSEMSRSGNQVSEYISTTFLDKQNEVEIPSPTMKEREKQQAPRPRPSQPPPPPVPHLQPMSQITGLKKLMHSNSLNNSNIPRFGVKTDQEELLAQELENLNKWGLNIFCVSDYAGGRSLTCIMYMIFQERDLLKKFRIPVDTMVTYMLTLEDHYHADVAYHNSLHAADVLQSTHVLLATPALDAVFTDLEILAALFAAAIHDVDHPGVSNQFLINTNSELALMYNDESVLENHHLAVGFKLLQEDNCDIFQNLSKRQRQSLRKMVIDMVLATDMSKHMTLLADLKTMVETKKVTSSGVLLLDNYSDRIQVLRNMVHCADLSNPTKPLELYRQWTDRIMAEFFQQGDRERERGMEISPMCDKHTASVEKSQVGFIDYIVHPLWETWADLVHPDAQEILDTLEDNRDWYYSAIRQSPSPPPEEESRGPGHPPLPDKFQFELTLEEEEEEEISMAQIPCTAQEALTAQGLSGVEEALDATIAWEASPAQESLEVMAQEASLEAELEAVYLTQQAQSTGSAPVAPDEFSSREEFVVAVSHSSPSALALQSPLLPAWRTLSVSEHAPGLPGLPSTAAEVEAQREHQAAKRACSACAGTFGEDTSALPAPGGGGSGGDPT

Structure (SMILES)	inhibition of PDE4A1A enzyme activity (PDE4A1A)	tissue relaxation of phenylephrine-contracted corpus cavernosum [1]	cumulative concentration-response relaxation ([1]; 0.001 to 10 μM, strips pre-contracted with 1 μM PE, FIG. 11)	percentage of relaxation in rabbit's corpus cavernosum [1, 2] [%]	inhibition of PDE3A enzyme activity (PDE3A)	inhibition of PDE2A1 enzyme activity (PDE2A1)	inhibition of PDE8A1 enzyme activity (PDE8A1)	inhibition of PDE4B1 enzyme activity (PDE4B1)	inhibition of PDE11A4 enzyme activity (PDE11A4) [%]
O=C1C2=C(c3c[nH]c4ccccc34)OC(c3ccc4c(c3)OCO4)N2C(=O)CN1CCO (centres unmarked) [BL-230, 3-(benzo[d][1,3]dioxol-5yl)-7-(2-hydroxyethyl)-1-(1H-indol-3-yl)-6,7-dihydro-3H-oxazolo[3,4-a]pyrazine-5,8-dione]	did not inhibit	produced tissue relaxation shape similar to that of tadalafil	dose-dependent relaxation similar to that observed for tadalafil	78.47	did not inhibit	did not inhibit	did not inhibit	did not inhibit	75
C[C@@H](CO)N1CC(=O)N2C(=C(c3c[nH]c4ccccc34)OC2c2ccc3c(c2)OCO3)C1=O (stereo partly drawn) [BL-236, 3-(benzo[d][1,3]dioxol-5yl)-7-((S)1-hydroxypropan-2yl)-1-(1H-indol-3-yl)-6,7-dihydro-3H-oxazolo[3,4-a]pyrazine-5,8-dione]	did not inhibit	produced tissue relaxation shape similar to that of tadalafil		93.05	did not inhibit	did not inhibit	did not inhibit	did not inhibit	80
